From ChEMBL document CHEMBL3865829 (Eur J Med Chem, 2016)
pIC50: −log10 of the molar value.

Legend:
[1] = tested on: A549; assay: Inhibition of mTORC2 in human A549 cells assessed as reduction in AKT phosphorylation at serine473 residues after 30 mins by Western blot analysis; type: cell-based
[2] = Antitumor activity against human Bel7404 cells xenografted in BALB/c nude mouse assessed as tumor volume at 10 mg/kg, ig administered via oral gavage once daily for 14 consecutive days measured on day 14 (reference value: 589.54 +/- 162.22 mm3); type: functional, BEL-7404
[3] = tested on: Mus musculus; assay: Toxicity in nude BALB/c mouse xenografted with human A549 cells assessed as body weight at 10 mg/kg, ig administered via oral gavage once daily for 14 consecutive days measured on day 15 (reference value: 27.12 +/- 1.43 g); type: organism-based; details: in vivo
[4] = Half life in Sprague-Dawley rat at 20 mg/kg administered via oral gavage as single dose by LCMS analysis; type: ADME, organism-based; details: in vivo
[5] = tested on: Mus musculus; assay: Toxicity in nude BALB/c mouse xenografted with human A549 cells assessed as mortality at 10 mg/kg, ig administered via oral gavage once daily for 14 consecutive days measured on day 30; type: organism-based; details: in vivo
[6] = AUC (0 to infinity) in Sprague-Dawley rat at 2 mg/kg, iv by LCMS analysis; type: ADME, organism-based; design: dose 2 mg/kg, time infinity, route intravenous; details: in vivo
[7] = Cmax in Sprague-Dawley rat at 20 mg/kg administered via oral gavage as single dose by LCMS analysis; type: ADME, organism-based; design: dose 20 mg/kg, route oral; details: in vivo
[8] = Antitumor activity against human A549 cells xenografted in BALB/c nude mouse assessed as tumor volume at 10 mg/kg, ig administered via oral gavage once daily for 14 consecutive days measured on day 4 (reference value: 419.55 +/- 104.72 mm3); type: functional
[9] = Antitumor activity against human A549 cells xenografted in BALB/c nude mouse assessed as tumor volume at 10 mg/kg, ig administered via oral gavage once daily for 14 consecutive days measured on day 18 (reference value: 3045.91 +/- 854.27 mm3); type: functional
[10] = tested on: A549; assay: Antitumor activity against human A549 cells xenografted in BALB/c nude mouse assessed as tumor growth inhibition administered ig via oral gavage once daily for 14 consecutive days measured on day 30; type: functional, cell-based
[11] = tested on: Mus musculus; assay: Toxicity in nude BALB/c mouse xenografted with human A549 cells assessed as body weight at 10 mg/kg, ig administered via oral gavage once daily for 14 consecutive days measured on day 11 (reference value: 26.11 +/- 1.06 g); type: organism-based; details: in vivo
[12] = Antitumor activity against human Bel7404 cells xenografted in BALB/c nude mouse assessed as tumor growth inhibition at 10 mg/kg, ig administered via oral gavage once daily for 14 consecutive days measured on day 29; type: functional; details: BEL-7404, po, 696 h, read-out: TGI
[13] = Antitumor activity against human Bel7404 cells xenografted in BALB/c nude mouse assessed as tumor volume at 10 mg/kg, ig administered via oral gavage once daily for 14 consecutive days measured on day 1 (reference value: 101.62 +/- 26.48 mm3); type: functional, BEL-7404
[14] = Antitumor activity against human Bel7404 cells xenografted in BALB/c nude mouse assessed as tumor volume at 10 mg/kg, ig administered via oral gavage once daily for 14 consecutive days measured on day 3 (reference value: 176.17 +/- 57.63 mm3); type: functional, BEL-7404
[15] = tested on: Mus musculus; assay: Toxicity in nude BALB/c mouse xenografted with human A549 cells assessed as body weight at 10 mg/kg, ig administered via oral gavage once daily for 14 consecutive days measured on day 8 (reference value: 25.66 +/- 1.04 g); type: organism-based; details: in vivo
[16] = Antitumor activity against human A549 cells xenografted in BALB/c nude mouse assessed as tumor growth inhibition at 10 mg/kg, ig administered via oral gavage once daily for 14 consecutive days measured on day 30 relative to control; type: functional; details: 720 h, read-out: TGI
[17] = Cytotoxicity against human A549 cells after 72 hrs by MTT assay; type: functional, cell-based; details: A549, 72 h
[18] = Antitumor activity against human A549 cells xenografted in BALB/c nude mouse assessed as tumor volume at 10 mg/kg, ig administered via oral gavage once daily for 14 consecutive days measured on day 15 (reference value: 2071.51 +/- 682.84 mm3); type: functional
[19] = Antitumor activity against human Bel7404 cells xenografted in BALB/c nude mouse assessed as tumor volume at 10 mg/kg, ig administered via oral gavage once daily for 14 consecutive days measured on day 10 (reference value: 425.92 +/- 102.32 mm3); type: functional, BEL-7404
[20] = Antitumor activity against human Bel7404 cells xenografted in BALB/c nude mouse assessed as tumor volume at 10 mg/kg, ig administered via oral gavage once daily for 14 consecutive days measured on day 17 (reference value: 747.40 +/- 169.75 mm3); type: functional, BEL-7404
[21] = tested on: A549; assay: Inhibition of PI3K in human A549 cells assessed as reduction in AKT phosphorylation at threonine308 residues after 30 mins by Western blot analysis; type: cell-based
[22] = Antitumor activity against human Bel7404 cells xenografted in BALB/c nude mouse assessed as tumor volume at 10 mg/kg, ig administered via oral gavage once daily for 14 consecutive days measured on day 7 (reference value: 284.68 +/- 74.36 mm3); type: functional, BEL-7404
[23] = Potency index, ratio of camptothecin GI50 to compound GI50 against human NCI60 cells; type: functional
[24] = Oral bioavailability in Sprague-Dawley rat at 20 mg/kg administered via gavage as single dose by LCMS analysis; type: ADME, organism-based; details: in vivo
[25] = tested on: Mus musculus; assay: Toxicity in nude BALB/c mouse xenografted with human A549 cells assessed as body weight at 10 mg/kg, ig administered via oral gavage once daily for 14 consecutive days measured on day 1 (reference value: 24.38 +/- 0.76 g); type: organism-based; details: in vivo
[26] = Antitumor activity against human A549 cells xenografted in BALB/c nude mouse assessed as tumor volume at 10 mg/kg, ig administered via oral gavage once daily for 14 consecutive days measured on day 1 (reference value: 156.87 +/- 22.32 mm3); type: functional
[27] = Half life in rat microsomes; type: ADME, Microsome
[28] = Ratio of Cmax in Sprague-Dawley rat to IC50 for human A549 cells
[29] = Time at which maximum plasma concentration stays above in vitro IC50 for human A549 cells in Sprague-Dawley rat at 20 mg/kg, po administered as single dose; type: ADME, organism-based; details: in vivo
[30] = tested on: Mus musculus; assay: Toxicity in nude BALB/c mouse xenografted with human A549 cells assessed as body weight at 10 mg/kg, ig administered via oral gavage once daily for 14 consecutive days measured on day 4 (reference value: 24.77 +/- 0.93 g); type: organism-based; details: in vivo
[31] = Antitumor activity against human A549 cells xenografted in BALB/c nude mouse assessed as tumor volume at 10 mg/kg, ig administered via oral gavage once daily for 14 consecutive days measured on day 8 (reference value: 840.07 +/- 205.19 mm3); type: functional
[32] = Cmax in Sprague-Dawley rat at 2 mg/kg, iv by LCMS analysis; type: ADME, organism-based; design: dose 2 mg/kg, route intravenous; details: in vivo
[33] = Potency index, ratio of paclitaxel GI50 to compound GI50 against human NCI60 cells; type: functional
[34] = AUC (0 to infinity) in Sprague-Dawley rat at 20 mg/kg administered via oral gavage as single dose by LCMS analysis; type: ADME, organism-based; design: dose 20 mg/kg, route oral, time infinity; details: in vivo
[35] = tested on: Mus musculus; assay: Toxicity in nude BALB/c mouse xenografted with human A549 cells assessed as body weight at 10 mg/kg, ig administered via oral gavage once daily for 14 consecutive days measured on day 18 (reference value: 27.75 +/- 1.41 g); type: organism-based; details: in vivo
[36] = Antitumor activity against human A549 cells xenografted in BALB/c nude mouse assessed as tumor volume at 10 mg/kg, ig administered via oral gavage once daily for 14 consecutive days measured on day 11 (reference value: 1327.66 +/- 404.92 mm3); type: functional
[37] = cells; details: Homo sapiens, HCT-116, 72 h

For `COc1ncc(-c2ccc3nccc(-c4ccc(CN(C)C)cc4)c3c2)cc1NS(=O)(=O)c1ccc(F)cc1F`, the inhibition [1] was “Dose-dependent effect”, the Activity [2] was 187.5 mm3 and the Activity [3] was 23.42 g. The half-life [4] was 4.41 h, the Activity [5] was “Non-Toxic” and the AUC(0-inf) [6] was 3740 ng·h/mL. It also gave a Cmax [7] of 7120 ng/mL, an Activity [8] of 224.6 mm3 and an Activity [9] of 748.11 mm3. For the same compound, the TGI [10] was “Dose-dependent effect”, the Activity [11] was 23.77 g and the inhibition in vivo at 10 mg/kg [12] was 70.6%. It also gave an Activity [13] of 90.39 mm3, an Activity [14] of 123.3 mm3 and an Activity [15] of 24.23 g. The inhibition in vivo at 10 mg/kg [16] was 73.5%, the pIC50 [17] was 8.36 and the Activity [18] was 536.2 mm3. The Activity [19] was 152.31 mm3, the Activity [20] was 220.21 mm3 and the inhibition [21] was “Dose-dependent effect”. For the same compound, the Activity [22] was 135.38 mm3, the RatioGI50 [23] was 2 and the bioavailability [24] was 95%. It also gave an Activity [25] of 25.13 g, an Activity [26] of 149.23 mm3 and a half-life [27] of 0.767 h. It also gave a Ratio [28] greater than 2800, a Time [29] of 0.5 h and an Activity [30] of 24.17 g. The Activity [31] was 330.06 mm3, the Cmax [32] was 1000 ng/mL and the RatioGI50 [33] was 2. It also gave an AUC(0-inf) [34] of 35600 ng·h/mL, an Activity [35] of 23.92 g and an Activity [36] of 432.38 mm3. It also gave a pIC50 [37] of 8.52.
